Source: ChEMBL document CHEMBL1124318, “Quinazoline antifolates inhibiting thymidylate synthase: synthesis of four oligo(L-gamma-glutamyl) conjugates of N10-propargyl-5,8-dideazafolic acid and their enzyme inhibition” (J Med Chem, 1989)
pKi: −log10 of the molar value.

molecular target: T1, Thymidylate synthase (Homo sapiens, UniProt P04818); assay: Compound was tested for inhibition of human (WI-L2) thymidylate synthase; details: read-out: Ki app
Target sequence in this assay (P04818 whole entry): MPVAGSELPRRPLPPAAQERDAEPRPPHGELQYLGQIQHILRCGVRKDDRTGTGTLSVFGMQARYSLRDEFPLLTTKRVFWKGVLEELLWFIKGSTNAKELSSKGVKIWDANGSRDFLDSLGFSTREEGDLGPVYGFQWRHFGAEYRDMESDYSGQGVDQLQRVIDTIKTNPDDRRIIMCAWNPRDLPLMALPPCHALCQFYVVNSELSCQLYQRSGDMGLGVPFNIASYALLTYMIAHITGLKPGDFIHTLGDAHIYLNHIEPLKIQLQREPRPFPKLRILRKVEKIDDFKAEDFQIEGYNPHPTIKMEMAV

SMILES | pKi
C#CCN(Cc1ccc2nc(N)[nH]c(=O)c2c1)c1ccc(C(=O)NC(CCC(=O)NC(CCC(=O)NC(CCC(=O)NC(CCC(=O)NC(CCC(=O)O)C(=O)O)C(=O)O)C(=O)O)C(=O)O)C(=O)O)cc1 (stereo not drawn) | 10.38
C#CCN(Cc1ccc2nc(N)[nH]c(=O)c2c1)c1ccc(C(=O)NC(CCC(=O)NC(CCC(=O)NC(CCC(=O)NC(CCC(=O)O)C(=O)O)C(=O)O)C(=O)O)C(=O)O)cc1 (stereo not drawn) | 10.39
C#CCN(Cc1ccc2nc(N)nc(O)c2c1)c1ccc(C(=O)NC(CCC(=O)NC(CCC(=O)NC(CCC(=O)O)C(=O)O)C(=O)O)C(=O)O)cc1 (stereo not drawn) | 10.14
C#CCN(Cc1ccc2nc(N)[nH]c(=O)c2c1)c1ccc(C(=O)NC(CCC(=O)NC(CCC(=O)O)C(=O)O)C(=O)O)cc1 (stereo not drawn) | 9.65

molecular target: T1, Thymidylate synthase; assay: Fold increase of inhibition of human thymidylate synthase from that of control; details: not given
Target sequence in this assay (P04818 2-313 limits assumed): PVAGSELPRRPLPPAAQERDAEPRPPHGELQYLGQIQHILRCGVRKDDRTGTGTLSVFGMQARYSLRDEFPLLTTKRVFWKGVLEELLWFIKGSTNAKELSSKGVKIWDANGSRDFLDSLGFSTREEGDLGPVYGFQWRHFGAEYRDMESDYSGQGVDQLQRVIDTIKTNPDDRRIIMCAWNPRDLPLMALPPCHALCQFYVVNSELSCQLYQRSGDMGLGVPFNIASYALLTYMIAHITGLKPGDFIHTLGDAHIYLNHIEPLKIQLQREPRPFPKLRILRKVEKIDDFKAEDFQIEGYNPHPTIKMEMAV

SMILES | Fold increase
C#CCN(Cc1ccc2nc(N)nc(O)c2c1)c1ccc(C(=O)NC(CCC(=O)NC(CCC(=O)O)C(=O)O)C(=O)O)cc1 (stereo not drawn) | 31
C#CCN(Cc1ccc2nc(N)nc(O)c2c1)c1ccc(C(=O)NC(CCC(=O)NC(CCC(=O)NC(CCC(=O)O)C(=O)O)C(=O)O)C(=O)O)cc1 (stereo not drawn) | 97
C#CCN(Cc1ccc2nc(N)nc(O)c2c1)c1ccc(C(=O)NC(CCC(=O)NC(CCC(=O)NC(CCC(=O)NC(CCC(=O)NC(CCC(=O)O)C(=O)O)C(=O)O)C(=O)O)C(=O)O)C(=O)O)cc1 (stereo not drawn) | 167
C#CCN(Cc1ccc2nc(N)nc(O)c2c1)c1ccc(C(=O)NC(CCC(=O)NC(CCC(=O)NC(CCC(=O)NC(CCC(=O)O)C(=O)O)C(=O)O)C(=O)O)C(=O)O)cc1 (stereo not drawn) | 171
